Laboratory results from PMC10983001, “Development of Cytotoxic GW7604-Zeise’s Salt Conjugates as Multitarget Compounds with Selectivity for Estrogen Receptor- Positive Tumor Cells” (Journal of Medicinal Chemistry, 2024).
pIC50: −log10 of the molar value.

What was measured:
[1] = tested on: MCF-7 cells; test: Comet assay; type: cell-based, human; details: MCF-7, 20 μM, 48 h
Experimental: The comet assay (Figure 10), however, documents different consequences of DNA binding. […] The picture (Figure 10C) is very similar to that of the solvent control (Figure 10A).
MCF-7 cells were seeded at a density of 1.0 × 10^6 cells into a 25 cm^2 flask, followed by 24 h of incubation in a humidified atmosphere (5% CO2/95% air) at 37 °C. […] Cells were incubated with the compounds for 48 h. The assay was performed according to the manufacturer’s protocol (Comet assay kit, Abcam, Cambridge, UK). Briefly, after lysis and application to the microscopy slides, electrophoresis was run in an alkaline buffer for 20 min at 2 V/cm. Subsequently, slides were washed with pure deionized water and EtOH/water [7/3 (v/v)], and stained with Vista Green DNA Dye. Visualization was carried out by real-time live confocal microscopy using an inverted microscope (Zeiss Observer Z1) in arrangement with a spinning disc confocal system (UltraVIEW VoX).

[2] = target: T1, ERα ligand-binding domain (Homo sapiens, UniProt P03372); test: TR-FRET ligand binding assay, isolated LBD of ERα
T1 construct: purchased Invitrogen
T1 sequence (P03372 311-547 limits assumed): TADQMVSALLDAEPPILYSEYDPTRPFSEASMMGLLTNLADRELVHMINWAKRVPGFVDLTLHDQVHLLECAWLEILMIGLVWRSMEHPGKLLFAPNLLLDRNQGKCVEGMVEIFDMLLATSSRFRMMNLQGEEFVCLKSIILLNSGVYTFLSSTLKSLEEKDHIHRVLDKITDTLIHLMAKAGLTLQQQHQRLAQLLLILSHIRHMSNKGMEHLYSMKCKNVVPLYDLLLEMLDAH
Experimental: A modified LanthaScreen TR-FRET alpha/beta assay was performed, according to the manufacturer’s protocol (Invitrogen, Carlsbad, […]), to determine the binding affinity to the isolated LBD. […] Measurements were carried out on a multimode plate reader, Tecan Spark (Tecan, Männedorf, Switzerland). Calculations and visualization were performed with GraphPad Prism 8.0 (GraphPad Software, San Diego, CA, USA).

[3] = tested on: nuclei of MCF-7 cells; test: Nuclear uptake (platinum by HR-CS-AAS), MCF-7; type: cell-based, human; details: MCF-7, 20 μM, 24 h; pmol complex/mg protein
Experimental: Fluorescence in the nuclei is not detectable. Therefore, the nuclei were analyzed for their platinum content using HR-CS-AAS.[25]
After thawing of the cell/nuclei pellets, they were resuspended in ultrapure water (Siemens LaboStar, Günzburg, Germany; 300 μL) and lyzed with a sonotrode (Bandelin Sonoplus, Berlin, Germany; parameters 20 s, 9 cycles, 80% power). Graphite furnace (GF) AAS was used to quantify the lysates concerning their content of platinum (λ = 265.9450 nm). For this purpose, a contrAA 700 High-Resolution-Continous Source AAS (Analytik Jena, Jena, Germany) was employed, while atomization took place by electrothermal heating of graphite tubes with an inserted platform (Analytik Jena, Jena, Germany). […] The spectrometer was monitored with the ASpect CS software, version 2.3.1.0 (Analytik Jena, Jena, Germany). For all runs, the mean integrated absorbance was determined after three injections of each standard or sample. […] Each cell/nuclei lysate was quantified concerning its protein content following the method of Bradford[71] in order to express the uptake as the amount of compound (pmol) in the lysate relative to its protein mass (mg). […] All standards and lysates were measured in duplicate. After incubating for 5 min at rt, the absorbance (λ = 595 nm) was read on a microplate reader (Tecan Safire 2, Männedorf, Switzerland). […]

[4] = tested on: plasmid pSport1; test: DNA interference assay (gel electrophoresis); type: binding; details: 20 μM, 4 h, 37 °C
Experimental: Therefore, the general possibility of DNA interaction was examined by incubating the complex with the empty plasmid pSport1 at a concentration of 20 μM for 4 h at 37 °C. The gel electrophoretic separation[60] […] The ladder structure differs from both the untreated sample (Figure 9A) and the solvent control (Figure 9B) and is similar to that of Cisplatin (Figure 9C).
Two μL (conc. 0.5 μg/μL) of an empty pSport1 (4109 base pairs) plasmid was mixed with 2 μL of each test compound (200 μM in DMF) and diluted with 16 μL of nuclease-free water to reach a final concentration of 20 μM for GW7604-Pent-PtCl3 and […] for Cisplatin. Afterward, this mixture was incubated for 4 h at 37 °C under gentle shaking. Samples were loaded with gel loading buffer on agarose gel [0.5% (w/v) in 1 × TRIS-acetate-EDTA (TAE) buffer + 0.004% Midori Green Advance]. The following running parameters were used: 95 min at 3 V/cm in 1 × TAE buffer. Images were visualized under UV light (254 nm).

Compound: CCC(=C(c1ccc(O)cc1)c1ccc(C=CC(=O)OCCC[CH]2[CH2][Pt-]2([Cl])([Cl])[Cl])cc1)c1ccccc1.[K+] (mixture of isomers) [GW7604-Pent-PtCl3, Potassium trichlorido[η^2-(pent-4-en-1-yl (E)-3-(4-((E/Z)-1-(4-hydroxyphenyl)-2-phenylbut-1-en-1-yl)phenyl)acrylate)]platinate(II)]
- comet tails (DNA cross-links) [1]: did not show this effect
- RBA (ERα) ([2]; RBA(E2) = 100%): 7.29%
- pIC50 ([2]; read-out: IC50 (ERα), displacement from the LBS): 8.32
- platinum content in the nuclei [3]: 145 pmol/mg
- interaction with plasmid DNA [4]: binds to DNA
